Reference: BindingDB's records for doi:10.1021/acschembio.6b00357 (Uppsala University, 2016)

What was measured:
Test in all cases: Radioligand Binding Assay
Adenosine receptor A3 = molecular target: T1, Adenosine receptor A3 (Homo sapiens, UniProt P0DMS8)
T1 sequence (P0DMS8 whole entry): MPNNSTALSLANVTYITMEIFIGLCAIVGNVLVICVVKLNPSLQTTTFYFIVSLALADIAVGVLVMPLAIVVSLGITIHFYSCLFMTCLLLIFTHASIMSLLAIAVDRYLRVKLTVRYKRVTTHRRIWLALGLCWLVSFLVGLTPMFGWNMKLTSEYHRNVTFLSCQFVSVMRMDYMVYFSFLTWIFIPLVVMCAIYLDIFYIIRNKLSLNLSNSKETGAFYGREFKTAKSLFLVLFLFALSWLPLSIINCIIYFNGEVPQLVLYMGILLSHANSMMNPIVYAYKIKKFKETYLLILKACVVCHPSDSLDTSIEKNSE
Experimental: (§1) Nonspecific binding was determined using adenosine-′-Nethyluronamideat 10 μM concentration.

Adenosine receptor A2a = Adenosine receptor A2a (Homo sapiens, UniProt P29274)
Sequence of Adenosine receptor A2a (P29274 whole entry): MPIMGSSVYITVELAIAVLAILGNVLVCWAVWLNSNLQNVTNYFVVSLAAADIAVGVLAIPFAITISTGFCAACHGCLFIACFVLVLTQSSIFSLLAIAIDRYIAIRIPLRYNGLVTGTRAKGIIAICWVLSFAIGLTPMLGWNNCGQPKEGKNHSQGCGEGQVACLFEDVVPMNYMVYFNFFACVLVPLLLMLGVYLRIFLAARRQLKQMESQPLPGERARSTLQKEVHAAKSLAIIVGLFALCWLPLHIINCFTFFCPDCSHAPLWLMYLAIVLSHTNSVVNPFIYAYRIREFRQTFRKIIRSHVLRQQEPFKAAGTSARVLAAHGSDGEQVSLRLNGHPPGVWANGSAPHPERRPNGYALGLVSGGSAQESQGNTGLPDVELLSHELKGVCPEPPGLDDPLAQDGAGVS
Experimental: as §1

Adenosine receptor A1 = molecular target: T2, Adenosine receptor A1 (Homo sapiens, UniProt P30542)
T2 sequence (P30542 whole entry): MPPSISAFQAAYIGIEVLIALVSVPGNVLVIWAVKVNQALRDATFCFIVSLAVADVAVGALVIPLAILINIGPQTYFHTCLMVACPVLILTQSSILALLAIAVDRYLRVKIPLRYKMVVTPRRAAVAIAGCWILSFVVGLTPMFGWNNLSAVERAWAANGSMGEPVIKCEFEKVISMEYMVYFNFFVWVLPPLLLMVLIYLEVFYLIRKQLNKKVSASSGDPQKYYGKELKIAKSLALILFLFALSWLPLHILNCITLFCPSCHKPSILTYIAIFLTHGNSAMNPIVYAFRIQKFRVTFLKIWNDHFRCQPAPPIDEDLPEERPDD
Experimental: as §1

| SMILES | Ki (Adenosine receptor A3) | Ki (Adenosine receptor A1) | Ki (Adenosine receptor A2a) |
| --- | --- | --- | --- |
| Nc1ccnc2c1ncn2[C@@H]1O[C@H](CO)[C@@H](O)[C@H]1O [1-DEAZA-ADENOSINE] | 0.583 µM | 0.084 µM | 0.645 µM |
| Nc1cccc2c1ncn2[C@@H]1O[C@H](CO)[C@@H](O)[C@H]1O [Adenosine receptor agonist, 7] | 0.823 µM | – | – |
| Nc1nc(=O)[nH]c2c1ncn2[C@@H]1O[C@H](CO)[C@@H](O)[C@H]1O [Adenosine receptor agonist, 9] | 0.348 µM | 0.467 µM | 0.495 µM |

Further lines, with some results ahead:

| Ki (Adenosine receptor A3) | Ki (Adenosine receptor A1) | SMILES | Ki (Adenosine receptor A2a) |
| --- | --- | --- | --- |
| 8.02 µM | – | Cc1cn([C@@H]2O[C@H](CO)[C@@H](O)[C@H]2O)c(=O)nc1N [Adenosine receptor agonist, 13] | – |
| 0.557 µM | 0.359 µM | Nc1ncn([C@@H]2O[C@H](CO)[C@@H](O)[C@H]2O)c(=O)c1Cl [Adenosine receptor agonist, 14] | – |
| – | 0.461 µM | Nc1nccc2c1ncn2[C@@H]1O[C@H](CO)[C@@H](O)[C@H]1O [CAS_6736-58-9] | – |
